# Measured values reported in PubChem BioAssay (NCI).
#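 1) Cells in 96-well plates. 2) Compound, 48 h, 5 concentrations. 3) Linear interpolation between surrounding doses. 4) Unreached endpoint = highest concentration. The concentration for full growth arrest is given as TGI.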
# Assays:
# Assay in all cases: NCI anticancer screen, dose series, 48 h
# RXF 393 renal = system: RXF 393 renal
# A549 NSCLC = system: A549 NSCLC
# SK-OV-3 ovarian = system: SK-OV-3 ovarian
# NCI-H460 lung = system: NCI-H460 lung
# SNB-19 CNS = system: SNB-19 CNS
# BT-549 breast = system: BT-549 breast
# PC-3 prostate = system: PC-3 prostate
# UACC-62 melanoma = system: UACC-62 melanoma
# NCI-H23 lung = system: NCI-H23 lung
# OVCAR-8 ovarian = system: OVCAR-8 ovarian
# SF-295 CNS = system: SF-295 CNS
SMILES,TGI (RXF 393 renal) [µM],TGI (A549 NSCLC) [µM],TGI (SK-OV-3 ovarian) [µM],TGI (NCI-H460 lung) [µM],TGI (SNB-19 CNS) [µM],TGI (BT-549 breast) [µM],TGI (PC-3 prostate) [µM],TGI (UACC-62 melanoma) [µM],TGI (NCI-H23 lung) [µM],TGI (OVCAR-8 ovarian) [µM],TGI (SF-295 CNS) [µM]
O=C1CC(Br)c2c(Cl)sc(Cl)c21 (centres undefined),4.91,45.4,30.4,34.8,37.8,61.4,23.4,25.1,39.1,10.4,30.2
CC(C)(C)OC(=O)C1=C(C(=O)OC(C)(C)C)SC2(S1)C(C(=O)OC(C)(C)C)=C(C(=O)OC(C)(C)C)Sc1c2ssc1=O,> 100,> 100,> 100,> 100,> 100,> 100,> 100,> 100,> 100,> 100,> 100
CC(SC(=S)N1CCCCC1)C(=O)Nc1nnc(-c2ccc(Cl)cc2)o1 (centres undefined),> 100,> 100,> 100,> 100,> 100,> 100,82.9,75.1,> 100,> 100,
CCOC(=O)CCC(C(=O)OCC)n1nc2ccc(Nc3c(C)[n+]([O-])c4cc(Cl)ccc4[n+]3[O-])cc2n1 (centres undefined),> 100,> 100,> 100,67.4,> 100,> 100,> 100,> 100,> 100,> 100,> 100
Oc1cc(Cl)cc2cc(Br)cnc12,19.2,> 42.6,> 100,> 57.7,> 100,> 100,> 100,> 77.6,> 100,> 26.9,> 45.4
CCCCCCOc1ccc(NC2=C(Cl)C(=O)c3cccnc3C2=O)cc1,2.77,4.25,> 10,3.8,> 10,> 10,> 10,3.28,3.7,4.56,> 10
O=C1Oc2ccccc2C(=O)/C1=C/N1C(=O)/C(=C/c2ccc([N+](=O)[O-])cc2)SC1=S,79.3,> 100,89.5,57.8,79.1,31.2,61.7,> 100,55,96.7,68
COC(=O)c1ccc2n1C1CC3CC(CC2C3)C1,96.6,> 100,> 100,> 100,> 100,> 100,> 100,> 100,> 100,> 100,> 100
Cc1cccc(-c2cc(=O)c3ccc(C)nc3[nH]2)c1,> 100,> 100,> 100,19.5,> 100,> 100,> 82.9,> 100,> 37.9,> 100,14.9
NC(=O)c1n[nH]n(-c2ccccc2)c1=O,> 100,> 100,> 100,> 100,> 100,> 100,> 100,> 100,> 100,> 100,> 100
O=C1CN(c2ccc(Cl)cc2)C(=O)CN1CCN1CC(=O)N(c2ccc(Cl)cc2)CC1=O,> 100,> 100,> 100,> 100,> 100,> 100,> 100,> 100,> 100,> 100,> 100
CC1=C(C2=C(C)C(=O)C(=O)c3cc(C)ccc32)c2ccc(C)cc2C(=O)C1=O,0.62,2.73,3.07,0.531,0.31,0.374,1.04,0.381,0.442,0.54,0.373
Cn1c(-c2csc(-c3ccc(Cl)cc3)n2)n[nH]c1=S,46.3,> 100,32,> 100,44.4,55.8,> 100,46.6,75.5,47.2,34.3
C[n+]1c2ccccc2c(CNC(CCC(N)=O)C(=O)O)c2ccccc21 (centres undefined),6.18,11.8,19.7,11.8,16.3,10.1,10.8,6.19,13.1,7.55,16
c1ccc2nc3[nH]c4ccccc4c3cc2c1,2.66,9.14,79.9,1.46,4.43,2.87,4.09,2.2,1.81,2.35,2.24
COC(=O)C1OC(O[C@H]2CC[C@]3(C)[C@H]4CC=C5[C@@H]6CC(C)(C)CC[C@]6(C(=O)OC)[C@H](O)C[C@@]5(C)[C@]4(C)CC[C@H]3C2(C)C)C(O)C(O)C1O (some centres undefined),18.1,17.4,28.2,22.7,26.9,30.4,19.8,25.1,18.9,27.3,23.1
CC(C)(C)NC(NC(C)(C)C)=C(C(Cl)=C(Cl)Cl)[N+](=O)[O-],> 100,> 100,> 100,> 100,> 100,> 100,> 100,> 100,> 100,> 100,> 100
N#Cc1c(=O)c2cc([N+](=O)[O-])ccc2n2c1[nH]c1ccccc12,> 100,> 100,> 100,> 89.2,> 72.9,> 69.5,> 100,> 54.1,> 38.4,> 79.5,> 52.2

SMILES,TGI (RXF 393 renal) [µM],TGI (A549 NSCLC) [µM],TGI (SK-OV-3 ovarian) [µM],TGI (NCI-H460 lung) [µM],TGI (SNB-19 CNS) [µM],TGI (BT-549 breast) [µM],TGI (PC-3 prostate) [µM],TGI (UACC-62 melanoma) [µM],TGI (NCI-H23 lung) [µM],TGI (OVCAR-8 ovarian) [µM],TGI (SF-295 CNS) [µM]
N#CC1C(=O)Nc2sc(C(=O)c3ccc(Br)cc3)c(N)c2C12CCCCC2 (centres undefined),31.8,> 100,> 100,> 100,> 100,> 100,57.1,54.1,> 100,> 100,> 100
CCOC(=O)CCC(NC(=O)c1ccc(CNc2nc3cc(N)cc(N)c3nc2-c2ccccc2)cc1)C(=O)OCC (centres undefined),> 100,> 100,> 100,> 100,> 100,> 100,> 100,> 100,> 100,> 100,> 100
CC1=C(C(=O)OCCO[N+](=O)[O-])C(c2ccccc2C(F)(F)F)C(C(=O)OC(C)C)=C(C)N1 (centres undefined),31.4,> 100,> 100,58.6,78.3,26.9,34.5,80.2,85.4,64.7,26.9
CC1=C/C(=N/N2C(=O)/C(=C/c3ccc(Cl)cc3)N=C2c2ccccc2)CC(C)(C)C1,> 100,> 100,> 100,> 100,> 100,> 100,> 100,> 100,> 100,> 100,> 100
CCC(=O)OCc1ccc2oc(=O)c(C(=O)Oc3cncc(Cl)c3)cc2c1,> 100,> 100,> 100,> 100,> 100,> 100,> 100,> 100,> 100,> 100,> 100
C=C1C(=O)OC2/C=C(\C)C(O)CC(O)C(C)(O)CC(OC(=O)/C(C)=C/C)C12 (centres undefined),> 100,> 100,> 100,> 100,> 100,83.9,> 100,> 100,> 100,> 100,> 100
C=CCN1C(=O)/C(=C/c2ccc(C)cc2)N=C1SC/C=C/C,46.8,> 100,> 100,> 100,> 100,> 100,> 100,> 100,> 100,> 100,> 100
O=C(O)c1c(-c2c3ccc(=O)cc-3oc3cc(O)ccc23)cc2ccccc2c1-c1ccccc1,> 100,> 100,> 100,> 100,> 100,> 100,> 100,> 100,> 100,> 100,> 100
COc1cccc(NCC(=O)Nn2c(-c3ccccc3)nc3ccccc3c2=O)c1,> 100,> 100,> 100,> 100,> 100,> 100,> 100,> 100,> 100,> 100,> 100
O=C(CCCCCCCCC(=O)NN1C(=O)/C(=C\c2ccc(O)c(O)c2)SC1c1c(O)ccc2ccccc12)NN1C(=O)C(=Cc2ccc(O)c(O)c2)SC1c1c(O)ccc2ccccc12 (centres undefined),> 57.6,> 37.1,> 86.8,> 100,> 70.3,> 100,> 100,45.6,95.1,> 100,> 100
Cn1c(N2CCCC2)c(C=O)c(=O)n(C)c1=O,> 100,> 100,> 100,> 100,> 100,> 100,> 100,> 100,> 100,> 100,> 100
N[C@@H]1c2c(Br)sc(Br)c2[C@H](O)[C@@H]1O,> 100,> 100,> 100,> 100,> 100,> 100,> 100,> 100,> 100,> 100,> 100
OC1C(O)C(O)C(O)C(O)C1O (centres undefined),> 1000,> 1000,> 1000,> 1000,> 1000,> 1000,> 1000,> 1000,> 1000,> 1000,
N=c1c2c3n(c4c(=O)n(-c5ccccc5)c(=S)n(c(=O)n1-c1ccccc1)c24)CCCCC3,> 100,> 100,> 100,> 100,> 100,> 100,> 100,> 100,> 100,> 100,> 100
C#CC(O)/C=C/CCCCCCC#CC/C=C\CC#CCCCCCC/C=C/C(O)C#C (centres undefined),28.3,10.2,32.1,16.3,24.8,9.61,24.4,7.38,3.53,13.1,26.9
Cc1ccc(C(=O)CC(Cl)=C(Cl)Cl)cc1,> 100,> 100,> 100,> 100,> 100,> 100,> 100,> 100,> 100,> 100,> 100
Cc1cccc2sc(NC(=O)c3cc([N+](=O)[O-])ccc3Cl)nc12,12.9,51.7,> 100,> 100,> 100,9.5,38.4,> 100,19.9,9.95,> 100
COc1ccc(-c2cc(-c3ccc(Nc4ccnc5cc(C(F)(F)F)ccc45)cc3)[nH]c(=O)c2C#N)c2ccccc12,46.1,> 100,> 100,> 100,> 54.7,> 100,> 100,> 100,> 100,> 100,> 100
